Source: US12472177B2, “Bicyclic compounds and methods for their use in treating Pitt Hopkins syndrome” (NEUREN PHARMACEUTICALS LIMITED, priority 2019, dated 2025)

Columns and labels:
Tcf4^+/− mice [1] = experiment: Open field (hypoactivity, distance travelled); type: in vivo, mouse; design: key to Open Field (Hypoactivity): Tukey’s Multiple Comparison Test Summary: **** = p < 0.00001; ns = not significant
Experimental: (§1) In vivo behavioral studies were conducted in Tcf4^+/− mutant and wildtype littermate control (WT) mice by Gen.DDI (Santiago, Chile). Littermate controls consist of the genotypes Tcf4^+/+. All Tcf4 mutant mice used were heterozygous for the Tcf4 mutation because homozygous mutations of Tcf4 result in embryonic to postnatal day 1 lethality. Ten mice per treatment group, 14 weeks of age, were used for behavioral experiments. Experiments were conducted in line with the requirements of the UK Animals (Scientific Procedures) Act, 1986. The mice were housed in plastic cages (35×30×12 cm), 5 in each and habituated to the animal facilities for at least a week before commencing the test. The room temperature (21° C.±2° C.), relative humidity (55%±5%), a 12-hour light-dark cycle (lights on 7 AM to 7 PM), and air exchange were automatically controlled. The animals had free access to commercial food pellets and water. Testing was performed during the light phase of the circadian cycle, with the order of testing being determined by the principle of conducting the most stressful tests last. Assays were designed to reproduce and expand on the original behavioral characterization of Tcf4^+/− mice. Tcf4^+/− and WT control mice were treated for 6 weeks prior to testing and tested 30 minutes following a dose of cG-2-AllylP, as described in Table 2 below.
The Open Field (OF) test is a combined test that is used to determine anxiety/hyperactivity, and for habituation to a novel environment, one of the most elementary forms of learning, in which decreased exploration as a function of repeated exposure to the same environment is taken as an index of memory. This is normally studied in two sessions of exposure to the open field, a 10-min and a 24 hr habituation session.
The device used for this study is a grey PVC enclosed arena 50×30 cm divided into 10 cm squares. Mice are brought to the experimental room 5-20 min before testing. A mouse is placed into a corner square facing the corner and observed for 3 min. The number of squares entered (whole body) and rears (both front paws off the ground, but not as part of grooming) are counted. The latency to the first rear is also noted. The movement of the mouse around the field was recorded with a video tracking device for 300 s (vNT4.0, Viewpoint). The latency for the mouse to enter the brightest, central part of the field total time spent in this central region, and total activity (in terms of path length in centimetres), were recorded.
The open field (OF) test is a test used to characterize explorative behavior, anxiety, and/or hypo- and hyperactivity in animals habituated to daily handling under novel and familiar conditions. During exposure to the open field mice will habituate to the environment and thus explore less, decreasing the amount movement they show over time.
In the present experiment, we recorded movement and rearing during an initial exposure (T1), during a second exposure after 10 minutes (T2) and during a third exposure after 24 hours (T3). Failures to reduce locomotion or rearing at 10 minutes and 24 hours indicate deficits in short- and long-term memory, respectively.
To evaluate whether cG-2-AllylP is effective to treat the hypoactivity in PTHS, we carried out Open Field studies. Lower scores on measures of open field locomotion were detected in Tcf4^+/− as compared to WT littermates, across the 30-minute test session.
The relative distance travelled is shown on the vertical axis, and the animals and their treatments are shown on the horizontal axis. Wild type (WT) mice treated with vehicle alone (left column) were considered to travel 100%. […] The effect of NNZ-2591 (cG-2-AllylP) were statistically significant.

Tcf4^+/− mice [2] = experiment: Hind limb force (motor performance); type: in vivo, mouse; design: key to Test of Force (Hind Limb): Tukey’s Muliple Comparison Test Summary: **** = p < 0.00001; ns = not significant
Experimental: as §1
Hind limb force is an important measure of the ability of a mouse to jump away from a predator. However, animals with the Tcf4^+/− mutation have substantially lower ability to jump away from a predator, making this mutation very serious and potentially life threatening. Hind limb force is also considered a surrogate for motor function in humans. To determine if NNZ-2591 (cG-2-AllylP) might provide a helpful treatment for this condition, we carried out a series of studies in which we measured hind limb force.

[3] = Tcf4^+/− + cG-2-AllylP (100 mg/kg) vs Tcf4^+/− + cG-2-AllylP (200 mg/kg)
[4] = Tcf4^+/− + cG-2-AllylP (100 mg/kg) vs WT + cG-2-AllylP (200 mg/kg)
[5] = Tcf4^+/− + vehicle vs Tcf4^+/− + cG-2-AllylP (200 mg/kg)
[6] = Tcf4^+/− + vehicle vs WT + cG-2-AllylP (100 mg/kg)
[7] = Tcf4^+/− mice, 100 mg/kg oral BID 6 weeks
[8] = Tcf4^+/− mice, 200 mg/kg oral BID 6 weeks
[9] = WT + cG-2-AllylP (100 mg/kg) vs Tcf4^+/− + cG-2-AllylP (100 mg/kg)
[10] = WT + cG-2-AllylP (100 mg/kg) vs Tcf4^+/− + cG-2-AllylP (200 mg/kg)
[11] = WT + cG-2-AllylP (100 mg/kg) vs WT + cG-2-AllylP (200 mg/kg)
[12] = WT + cG-2-AllylP (200 mg/kg) vs Tcf4^+/− + cG-2-AllylP (200 mg/kg)
[13] = WT + vehicle vs Tcf4^+/− + cG-2-AllylP (100 mg/kg)
[14] = WT + vehicle vs Tcf4^+/− + cG-2-AllylP (200 mg/kg)
[15] = WT + vehicle vs WT + cG-2-AllylP (100 mg/kg)
[16] = WT + vehicle vs WT + cG-2-AllylP (200 mg/kg)
[17] = WT mice, 100 mg/kg oral BID 6 weeks
[18] = WT mice, 200 mg/kg oral BID 6 weeks

Compound: C=CC[C@]12CCCN1C(=O)CNC2=O [cG-2-AllylP, (8aS)-Allyl-hexahydropyrrolo[1,2-a]pyrazine-1,4-dione]
- Open Field (Hypoactivity): Tukey’s Multiple Comparison Test Summary (Tcf4^+/− mice [1]; [3]): ns
- Open Field (Hypoactivity): Tukey’s Multiple Comparison Test Summary (Tcf4^+/− mice [1]; [4]): ns
- Open Field (Hypoactivity): Tukey’s Multiple Comparison Test Summary (Tcf4^+/− mice [1]; Tcf4^+/− + vehicle vs Tcf4^+/− + cG-2-AllylP 1 (200 mg/kg) [r21-22]): **** (**** = p < 0.00001)
- Open Field (Hypoactivity): Tukey’s Multiple Comparison Test Summary (Tcf4^+/− mice [1]; Tcf4^+/− + vehicle vs Tcf4^+/− + cG-2-AllylP (100 mg/kg) [r23-24]): **** (**** = p < 0.00001)
- Open Field (Hypoactivity): Tukey’s Multiple Comparison Test Summary (Tcf4^+/− mice [1]; [5]): **** (**** = p < 0.00001)
- Open Field (Hypoactivity): Tukey’s Multiple Comparison Test Summary (Tcf4^+/− mice [1]; [6]): **** (**** = p < 0.00001)
- Behavior Normalized to WildType Levels: Open Field (Tcf4^+/− mice [1]; Tcf4^+/− mice, 100 mg/kg): ✓
- Relative distance travelled (mobility), open field (Tcf4^+/− mice [1]; [7]): nearly identical mobility as did WT mice treated with vehicle alone
- Behavior Normalized to WildType Levels: Open Field (Tcf4^+/− mice [1]; Tcf4^+/− mice, 200 mg/kg): ✓
- Relative distance travelled (mobility), open field (Tcf4^+/− mice [1]; [8]): normalized this mild to moderate hypoactivity
- Open Field (Hypoactivity): Tukey’s Multiple Comparison Test Summary (Tcf4^+/− mice [1]; [9]): ns
- Open Field (Hypoactivity): Tukey’s Multiple Comparison Test Summary (Tcf4^+/− mice [1]; [10]): ns
- Open Field (Hypoactivity): Tukey’s Multiple Comparison Test Summary (Tcf4^+/− mice [1]; [11]): ns
- Open Field (Hypoactivity): Tukey’s Multiple Comparison Test Summary (Tcf4^+/− mice [1]; [12]): ns
- Open Field (Hypoactivity): Tukey’s Multiple Comparison Test Summary (Tcf4^+/− mice [1]; [13]): ns
- Open Field (Hypoactivity): Tukey’s Multiple Comparison Test Summary (Tcf4^+/− mice [1]; [14]): ns
- Open Field (Hypoactivity): Tukey’s Multiple Comparison Test Summary (Tcf4^+/− mice [1]; [15]): ns
- Open Field (Hypoactivity): Tukey’s Multiple Comparison Test Summary (Tcf4^+/− mice [1]; [16]): ns
- Relative distance travelled (mobility), open field (Tcf4^+/− mice [1]; [17]): slightly higher mobility than WT mice treated with vehicle
- Relative distance travelled (mobility), open field (Tcf4^+/− mice [1]; [18]): nearly the same mobility
- Test of Force (Hind Limb): Tukey’s Muliple Comparison Test Summary (Tcf4^+/− mice [2]; [3]): ns
- Test of Force (Hind Limb): Tukey’s Muliple Comparison Test Summary (Tcf4^+/− mice [2]; [4]): ns
- Test of Force (Hind Limb): Tukey’s Muliple Comparison Test Summary (Tcf4^+/− mice [2]; Tcf4^+/− + vehicle vs Tcf4^+/− + cG-2-AllylP (100 mg/kg)): **** (**** = p <0.00001)
- Test of Force (Hind Limb): Tukey’s Muliple Comparison Test Summary (Tcf4^+/− mice [2]; [5]): **** (**** = p <0.00001)
- Test of Force (Hind Limb): Tukey’s Muliple Comparison Test Summary (Tcf4^+/− mice [2]; [6]): **** (**** = p <0.00001)
- Test of Force (Hind Limb): Tukey’s Muliple Comparison Test Summary (Tcf4^+/− mice [2]; Tcf4^+/− + vehicle vs WT + cG-2-AllylP (200 mg/kg)): **** (**** = p <0.00001)
- Behavior Normalized to WildType Levels: Force (Tcf4^+/− mice [2]; Tcf4^+/− mice, 100 mg/kg): ✓
- Hind limb force (Tcf4^+/− mice [2]; [7]): nearly identical to those produced by WT mice
- Behavior Normalized to WildType Levels: Force (Tcf4^+/− mice [2]; Tcf4^+/− mice, 200 mg/kg): ✓
- Hind limb force (Tcf4^+/− mice [2]; [8]): nearly identical to those produced by WT mice
- Test of Force (Hind Limb): Tukey’s Muliple Comparison Test Summary (Tcf4^+/− mice [2]; [9]): ns
- Test of Force (Hind Limb): Tukey’s Muliple Comparison Test Summary (Tcf4^+/− mice [2]; [10]): ns
- Test of Force (Hind Limb): Tukey’s Muliple Comparison Test Summary (Tcf4^+/− mice [2]; [11]): ns
- Test of Force (Hind Limb): Tukey’s Muliple Comparison Test Summary (Tcf4^+/− mice [2]; [12]): ns
- Test of Force (Hind Limb): Tukey’s Muliple Comparison Test Summary (Tcf4^+/− mice [2]; [13]): ns
- Test of Force (Hind Limb): Tukey’s Muliple Comparison Test Summary (Tcf4^+/− mice [2]; [14]): ns
- Test of Force (Hind Limb): Tukey’s Muliple Comparison Test Summary (Tcf4^+/− mice [2]; [15]): ns
- Test of Force (Hind Limb): Tukey’s Muliple Comparison Test Summary (Tcf4^+/− mice [2]; [16]): ns
- Hind limb force (Tcf4^+/− mice [2]; [17]): about the same levels of force as vehicle-treated WT mice
- Hind limb force (Tcf4^+/− mice [2]; [18]): about the same levels of force as vehicle-treated WT mice
